Tests used:
[1] = target: EGFR mutant L858R Ba/F3 cells (Homo sapiens, UniProt P00533, L858R, cells depend on it); assay: Ba/F3 cell proliferation (Cell Titer Glo), EGFR L858R; type: cell-based, murine; conditions: 72 hours exposure, read-out: L858R BaF3 (μM), inhibitory activity against EGFR mutants
Description: (§1) The EGFR mutant L858R Ba/F3 cells have been previously described (Zhou, W., et al. Nature 462, 2009, 1070-1074). The EGFR C797S and C775S mutations were introduced via site directed mutagenesis using the Quick Change Site-Directed Mutagenesis kit into a vector containing EGFR L858R mutation (Stratagene; La Jolla, CA) according to the manufacturer's instructions. All constructs were confirmed by DNA sequencing. The constructs were then shuttled into the retroviral vector JP1540 by either using the Cre-recombination system (Agilent Technologies, Santa Clara, CA) or the In-fusion HD Cloning kit (Takara Bio USA, Inc.; Mountain view, CA). Ba/F3 cells were then infected with retrovirus per standard protocols, as described previously (Zhou, et al, Nature 2009). Stable clones were obtained by selection in puromycin (2 ug/ml). All BaF/3 mutant cells were maintained in RPMI 1640 (Cellgro; Mediatech Inc., Herndon, CA) supplemented with 10% FBS, 100 units/mL penicillin, 100 units/mL streptomycin.
(§2) Growth and inhibition of growth was assessed by the Cell Titer Glo assay (Promega, Madison, WI) and was performed according to the manufacturer's instructions. The Cell Titer Glo assay is a luminescence-based method used to determine the number of viable cells based on quantitation of the ATP present, which is directly proportional to the amount of metabolically active cells present. Ba/F3 cells of different EGFR genotypes were exposed to compounds for 72 hours and the number of cells used per experiment was determined empirically as has been previously established (Zhou, et al., Nature 2009). All experimental points were set up in triplicates in 384-well plates. […] The curves were fitted using a non-linear regression model with a sigmoidal dose response.
(§3) For inhibitory activity against EGFR mutants, the following designations are used: ≤0·25 μM=A, 0·25 μM˜0.5 μM=B, 0.5 μM˜2.5 μM=C, ≥2.5 μM=D.

[2] = target: EGFR L858R/C797S Ba/F3 cells (Homo sapiens, UniProt P00533, C797S/L858R, cells depend on it); assay: Ba/F3 cell proliferation (Cell Titer Glo), EGFR L858R/C797S; type: cell-based, murine; conditions: 72 hours exposure, read-out: L858R/C797S (μM), inhibitory activity against EGFR mutants
EGFR L858R/C797S Ba/F3 cells, sequence (P00533 whole entry C797S/L858R): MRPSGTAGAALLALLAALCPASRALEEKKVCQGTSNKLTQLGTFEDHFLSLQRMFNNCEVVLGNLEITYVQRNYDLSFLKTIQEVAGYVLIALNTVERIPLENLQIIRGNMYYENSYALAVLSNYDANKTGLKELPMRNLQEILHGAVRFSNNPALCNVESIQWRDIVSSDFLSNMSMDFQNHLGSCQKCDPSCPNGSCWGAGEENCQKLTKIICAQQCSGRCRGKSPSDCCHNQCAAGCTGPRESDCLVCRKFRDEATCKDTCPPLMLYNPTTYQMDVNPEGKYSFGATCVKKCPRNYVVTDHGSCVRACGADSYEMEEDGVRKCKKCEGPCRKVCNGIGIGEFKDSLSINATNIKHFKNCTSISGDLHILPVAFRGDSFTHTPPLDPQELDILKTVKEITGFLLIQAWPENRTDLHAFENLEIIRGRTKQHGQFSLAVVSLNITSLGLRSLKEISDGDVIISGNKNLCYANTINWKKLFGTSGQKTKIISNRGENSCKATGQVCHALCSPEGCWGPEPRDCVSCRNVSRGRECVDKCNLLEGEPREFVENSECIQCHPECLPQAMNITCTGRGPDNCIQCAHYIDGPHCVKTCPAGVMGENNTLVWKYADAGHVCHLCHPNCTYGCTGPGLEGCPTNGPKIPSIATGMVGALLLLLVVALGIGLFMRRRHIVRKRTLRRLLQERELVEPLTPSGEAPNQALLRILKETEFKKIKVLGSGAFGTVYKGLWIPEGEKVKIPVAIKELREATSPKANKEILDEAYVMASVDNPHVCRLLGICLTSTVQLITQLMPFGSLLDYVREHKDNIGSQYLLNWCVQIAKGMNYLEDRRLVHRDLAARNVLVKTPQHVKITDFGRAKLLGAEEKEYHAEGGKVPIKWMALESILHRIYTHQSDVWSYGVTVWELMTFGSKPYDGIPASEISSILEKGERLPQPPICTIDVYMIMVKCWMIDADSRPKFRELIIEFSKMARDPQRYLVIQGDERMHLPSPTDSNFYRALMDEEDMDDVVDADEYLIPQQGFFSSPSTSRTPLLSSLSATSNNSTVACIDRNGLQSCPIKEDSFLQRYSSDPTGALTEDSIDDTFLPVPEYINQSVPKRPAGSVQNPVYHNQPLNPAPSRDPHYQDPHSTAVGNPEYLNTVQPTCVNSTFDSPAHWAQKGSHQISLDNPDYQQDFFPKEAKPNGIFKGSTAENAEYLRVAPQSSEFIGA
Description: as §1, §2, §3

EGFR mutant L858R Ba/F3 cells, sequence (P00533 whole entry L858R, the tested form may be a part): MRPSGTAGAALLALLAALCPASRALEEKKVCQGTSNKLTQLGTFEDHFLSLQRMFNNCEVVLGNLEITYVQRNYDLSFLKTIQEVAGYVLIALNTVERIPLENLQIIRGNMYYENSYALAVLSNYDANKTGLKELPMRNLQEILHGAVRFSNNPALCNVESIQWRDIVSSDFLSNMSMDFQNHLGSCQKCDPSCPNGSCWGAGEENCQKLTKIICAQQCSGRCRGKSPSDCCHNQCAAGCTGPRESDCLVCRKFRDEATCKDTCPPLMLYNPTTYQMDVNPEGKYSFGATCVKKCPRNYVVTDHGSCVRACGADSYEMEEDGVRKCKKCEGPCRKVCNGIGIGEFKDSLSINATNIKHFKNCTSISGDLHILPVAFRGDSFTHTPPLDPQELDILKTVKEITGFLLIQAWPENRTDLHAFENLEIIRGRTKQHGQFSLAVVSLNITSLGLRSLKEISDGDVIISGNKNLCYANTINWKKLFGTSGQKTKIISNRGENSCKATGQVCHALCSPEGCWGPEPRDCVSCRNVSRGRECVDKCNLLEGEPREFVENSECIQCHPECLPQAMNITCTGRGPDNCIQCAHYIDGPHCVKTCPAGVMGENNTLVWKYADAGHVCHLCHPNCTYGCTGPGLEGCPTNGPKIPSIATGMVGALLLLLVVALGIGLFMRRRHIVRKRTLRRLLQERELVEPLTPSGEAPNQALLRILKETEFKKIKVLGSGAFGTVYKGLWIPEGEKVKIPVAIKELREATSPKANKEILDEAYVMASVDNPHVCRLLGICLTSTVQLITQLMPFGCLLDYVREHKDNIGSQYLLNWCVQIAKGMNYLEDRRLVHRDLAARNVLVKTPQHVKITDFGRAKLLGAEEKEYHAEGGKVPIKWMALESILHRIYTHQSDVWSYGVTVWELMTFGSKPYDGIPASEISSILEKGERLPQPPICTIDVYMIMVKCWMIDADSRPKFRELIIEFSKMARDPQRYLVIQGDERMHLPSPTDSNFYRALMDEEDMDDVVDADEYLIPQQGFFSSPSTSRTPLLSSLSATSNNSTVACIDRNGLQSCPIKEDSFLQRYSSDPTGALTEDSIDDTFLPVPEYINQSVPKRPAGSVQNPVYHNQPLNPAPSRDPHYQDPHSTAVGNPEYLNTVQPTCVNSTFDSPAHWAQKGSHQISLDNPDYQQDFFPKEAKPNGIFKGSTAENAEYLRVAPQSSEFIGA

SMILES	GI50 [1] [µM]	GI50 [2] [µM]
C=CC(=O)N1CCN(c2cc3cnc(Nc4ccc(N5CCN(C)CC5)cc4)nc3n(C)c2=O)C(c2ccccc2)C1 (stereo not shown) [Compound 011, 8-methyl-2-[4-(4-methylpiperazin-1-yl)anilino]-6-(2-phenyl-4-prop-2-enoyl-piperazin-1-yl)pyrido[2,3-d]pyrimidin-7-one]	≥ 2.5	≥ 2.5
C=CC(=O)N1CCN(c2cc3cnc(Nc4ccc(N5CCN(C)CC5)cc4)nc3n(C)c2=O)C2(CC2)C1 [Compound 012, 8-methyl-2-[4-(4-methylpiperazin-1-yl)anilino]-6-(7-prop-2-enoyl-4,7-diazaspiro[2.5]octan-4-yl)pyrido[2,3-d]pyrimidin-7-one]	≥ 2.5	≥ 2.5
C=C(F)C(=O)N1CCN(c2cc3cnc(Nc4cnn(CCO)c4)nc3n(C)c2=O)c2ccccc21 [Compound 013, 6-[4-(2-fluoroprop-2-enoyl)-2,3-dihydroquinoxalin-1-yl]-2-[[1-(2-hydroxyethyl)pyrazol-4-yl]amino]-8-methyl-pyrido[2,3-d]pyrimidin-7-one]	≤ 0.25	0.25 to 0.5
C=C(F)C(=O)N1CCC(c2cc3cnc(Nc4cnn(CCO)c4)nc3n(C)c2=O)c2ccccc21 (stereo not shown) [Compound 014, 6-[1-(2-fluoroprop-2-enoyl)-3,4-dihydro-2H-quinolin-4-yl]-2-[[1-(2-hydroxyethyl)pyrazol-4-yl]amino]-8-methyl-pyrido[2,3-d]pyrimidin-7-one]	≤ 0.25	≤ 0.25
C=CC(=O)NC1CCCN(c2cc3cnc(Nc4cnn(CCO)c4)nc3n(C)c2=O)C1 (stereo not shown) [Compound 015, N-[1-[2-[[1-(2-hydroxyethyl)pyrazol-4-yl]amino]-8-methyl-7-oxo-pyrido[2,3-d]pyrimidin-6-yl]-3-piperidyl]prop-2-enamide]	≥ 2.5	≥ 2.5
C=C(F)C(=O)NC1CCCN(c2cc3cnc(Nc4cnn(CCO)c4)nc3n(C)c2=O)C1 (stereo not shown) [Compound 016, 2-fluoro-N-[1-[2-[[1-(2-hydroxyethyl)pyrazol-4-yl]amino]-8-methyl-7-oxo-pyrido[2,3-d]pyrimidin-6-yl]-3-piperidyl]prop-2-enamide]	≥ 2.5	≥ 2.5
C=CC(=O)N1CCC(c2cc3cnc(Nc4cnn(CCO)c4)nc3n(C)c2=O)c2ccccc21 (stereo not shown) [Compound 017, 2-[[1-(2-hydroxyethyl)pyrazol-4-yl]amino]-8-methyl-6-(1-prop-2-enoyl-3,4-dihydro-2H-quinolin-4-yl)pyrido[2,3-d]pyrimidin-7-one]	≤ 0.25	≤ 0.25
C=C(F)C(=O)NC1CCN(c2cc3cnc(Nc4cnn(CCO)c4)nc3n(C)c2=O)CC1 [Compound 018]	≥ 2.5	≥ 2.5
C=CC(=O)N1CCN(c2cc3cnc(Nc4ccc(N5CCN(C)CC5)cc4)nc3n(C)c2=O)c2cccc(C)c21 [Compound 019, 8-methyl-2-[4-(4-methylpiperazin-1-yl)anilino]-6-(5-methyl-4-prop-2-enoyl-2,3-dihydroquinoxalin-1-yl)pyrido[2,3-d]pyrimidin-7-one]	≤ 0.25	≤ 0.25
C=CC(=O)N1CCN(c2cc3cnc(Nc4cnn(CCO)c4)nc3n(C)c2=O)c2cccc(OC)c21 [Compound 020, 2-[[1-(2-hydroxyethyl)pyrazol-4-yl]amino]-6-(5-methoxy-4-prop-2-enoyl-2,3-dihydroquinoxalin-1-yl)-8-methyl-pyrido[2,3-d]pyrimidin-7-one]	≤ 0.25	0.25 to 0.5
C=CC(=O)N1CCN(c2cc3cnc(Nc4ccc(N5CCN(C)CC5)cc4)nc3n(C)c2=O)c2cccc(OC)c21 [Compound 021]	≤ 0.25	≤ 0.25
C=CC(=O)N1CC(C)N(c2cc3cnc(Nc4ccc(N5CCN(C)CC5)cc4)nc3n(C)c2=O)C(C)C1 (stereo not shown) [Compound 022, 6-(2,6-dimethyl-4-prop-2-enoyl-piperazin-1-yl)-8-methyl-2-[4-(4-methylpiperazin-1-yl)anilino]pyrido[2,3-d]pyrimidin-7-one]	≥ 2.5	≥ 2.5
C=CC(=O)N1CC2CCN(c3cc4cnc(Nc5ccc(N6CCN(C)CC6)cc5)nc4n(C)c3=O)C[C@@H]2C1 (stereo partly shown) [Compound 023, 8-methyl-2-[4-(4-methylpiperazin-1-yl)anilino]-6-(2-prop-2-enoyl-3,3a,4,6,7,7a-hexahydro-1H-pyrrolo[3,4-c]pyridin-5-yl)pyrido[2,3-d]pyrimidin-7-one]	≥ 2.5	≥ 2.5

Further lines, results first:

GI50 [1] [µM]	GI50 [2] [µM]	SMILES
≥ 2.5	≥ 2.5	C=CC(=O)N1CCN(c2cc3cnc(Nc4ccc(N5CCN(C)CC5)cc4)nc3n(C)c2=O)C2CC21 (stereo not shown) [Compound 024, 8-methyl-2-[4-(4-methylpiperazin-1-yl)anilino]-6-(5-prop-2-enoyl-2,5-diazabicyclo[4.1.0]heptan-2-yl)pyrido[2,3-d]pyrimidin-7-one]
≥ 2.5	≥ 2.5	C=CC(=O)N1CCN(c2cc3cnc(Nc4ccc(N5CCN(C)CC5)cc4)nc3n(C)c2=O)C(=O)C1 [Compound 025, 8-methyl-2-[4-(4-methylpiperazin-1-yl)anilino]-6-(2-oxo-4-prop-2-enoyl-piperazin-1-yl)pyrido[2,3-d]pyrimidin-7-one]
0.5 to 2.5	0.5 to 2.5	CCC(=O)N1CCN(c2cc3cnc(Nc4ccc(N5CCN(C)CC5)cc4)nc3n(C)c2=O)c2cccc(C)c21 [Compound 026]
≤ 0.25	≤ 0.25	C=CC(=O)N1CCN(c2cc3cnc(Nc4ccc(N5CCC(O)CC5)cc4)nc3n(C)c2=O)c2cccc(C)c21 [Compound 027, 2-[4-(4-hydroxy-1-piperidyl)anilino]-8-methyl-6-(5-methyl-4-prop-2-enoyl-2,3-dihydroquinoxalin-1-yl)pyrido[2,3-d]pyrimidin-7-one]
≤ 0.25	0.25 to 0.5	C=C(F)C(=O)N1CCN(c2cc3cnc(Nc4ccc(N5CCN(C)CC5)cc4)nc3n(C)c2=O)c2cccc(C)c21 [Compound 028]
≤ 0.25	≤ 0.25	C=CC(=O)N1CCN(c2cc3cnc(Nc4ccc(N5CCN(C)CC5)cc4OC)nc3n(C)c2=O)c2cccc(C)c21 [Compound 029]
≤ 0.25	≤ 0.25	C=CC(=O)N1CCN(c2cc3cnc(Nc4ccc(N5CCN(C)CC5)cn4)nc3n(C)c2=O)c2cccc(C)c21 [Compound 030]
≤ 0.25	≤ 0.25	C=CC(=O)N1CCN(c2cc3cnc(Nc4ccc(N5CCN(C)CC5)nc4)nc3n(C)c2=O)c2cccc(C)c21 [Compound 031]
≤ 0.25	≤ 0.25	C=CC(=O)N1CCN(c2cc3cnc(Nc4ccc(OCCN5CCCC5)cc4)nc3n(C)c2=O)c2cccc(C)c21 [Compound 032]
≤ 0.25	≤ 0.25	C=CC(=O)N1CCN(c2cc3cnc(Nc4ccc(OCCN(C)C)cc4)nc3n(C)c2=O)c2cccc(C)c21 [Compound 033, 2-[4-[2-(dimethylamino)ethoxy]anilino]-8-methyl-6-(5-methyl-4-prop-2-enoyl-2,3-dihydroquinoxalin-1-yl)pyrido[2,3-d]pyrimidin-7-one]
≤ 0.25	≤ 0.25	C=CC(=O)N1CCN(c2cc3cnc(Nc4ccc(CS(=O)(=O)NC)cc4)nc3n(C)c2=O)c2cccc(C)c21 [Compound 034, N-methyl-1-[4-[[8-methyl-6-(5-methyl-4-prop-2-enoyl-2,3-dihydroquinoxalin-1-yl)-7-oxo-pyrido[2,3-d]pyrimidin-2-yl]amino]phenyl]methanesulfonamide]
≤ 0.25	≤ 0.25	C=CC(=O)N1CCN(c2cc3cnc(Nc4ccc5c(c4)CN(S(C)(=O)=O)CC5)nc3n(C)c2=O)c2cccc(C)c21 [Compound 035]
≤ 0.25	≤ 0.25	C=CC(=O)N1CCN(c2cc3cnc(Nc4ccc(N5CCN(C)CC5)cc4F)nc3n(C)c2=O)c2cccc(C)c21 [Compound 036]
≤ 0.25	≤ 0.25	C=CC(=O)N1CCN(c2cc3cnc(Nc4cnn(CCN(C)C)c4)nc3n(C)c2=O)c2cccc(C)c21 [Compound 037, 2-[[1-[2-(dimethylamino)ethyl]pyrazol-4-yl]amino]-8-methyl-6-(5-methyl-4-prop-2-enoyl-2,3-dihydroquinoxalin-1-yl)pyrido[2,3-d]pyrimidin-7-one]
≤ 0.25	≤ 0.25	C=CC(=O)N1CCN(c2cc3cnc(Nc4cnn(CCO)c4)nc3n(C)c2=O)c2cccc(C)c21 [Compound 038]
≤ 0.25	≤ 0.25	C=CC(=O)N1CCN(c2cc3cnc(Nc4cnn(C5CCN(C)CC5)c4)nc3n(C)c2=O)c2cccc(C)c21 [Compound 039, 8-methyl-2-[[1-(1-methyl-4-piperidyl)pyrazol-4-yl]amino]-6-(5-methyl-4-prop-2-enoyl-2,3-dihydroquinoxalin-1-yl)pyrido[2,3-d]pyrimidin-7-one]
